From the supplement of paper PMC10307832

Tests used:
Test in all cases: relative viability (nuclei count vs DMSO), 5 days (fraction); higher = more cells survive
[1] = compound: CN1C=C(C2=CC=CC=C21)/C=C\3/C4=C(C=CC=N4)NC3=O + C[C@]1(O)C[C@@H](c2nc(-c3ccc4ccc(-c5ccccc5)nc4c3)c3c(N)nccn32)C1 [Linsitinib] (partner 1 µM)
Method in brief: (§1)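 For relative viability, nuclei counts in treated wells were divided by those in vehicle wells. Lung cancer cell lines had been pin-tool dosed in 1536-well plates the day after seeding and cultured for 5 days, then fixed and stained in one step (final 0.05% Triton X-100, 1% formaldehyde, 1 ug/ml Hoechst) and imaged at 4×. Doses were one drug alone or a fixed anchor-drug dose plus five library-drug doses (not always all listed) in √10 steps, and values are duplicate-plate medians.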

[2] = compound: CN1C=C(C2=CC=CC=C21)/C=C\3/C4=C(C=CC=N4)NC3=O + CC(C)C[C@H](NC(=O)[C@H](Cc1ccccc1)NC(=O)c1cnccn1)B(O)O [Bortezomib] (partner 0.002 µM)
Method in brief: as §1

[3] = compound: CC(=O)Nc1cccc(-n2c(=O)n(C3CC3)c(=O)c3c(Nc4ccc(I)cc4F)n(C)c(=O)c(C)c32)c1 [Trametinib] + CS(=O)(=O)CCNCc1ccc(-c2ccc3ncnc(Nc4ccc(OCc5cccc(F)c5)c(Cl)c4)c3c2)o1 [Lapatinib] (partner 2 µM)
Method in brief: as §1

[4] = compound: CC(=O)Nc1cccc(-n2c(=O)n(C3CC3)c(=O)c3c(Nc4ccc(I)cc4F)n(C)c(=O)c(C)c32)c1 [Trametinib] + Cc1cc(Nc2cc(N3CCN(C)CC3)nc(Sc3ccc(NC(=O)C4CC4)cc3)n2)n[nH]1 [Tozasertib] (partner 0.1 µM)
Method in brief: as §1

Row | Cell Line | relative viability ([1]; first compound 0.02 µM) | relative viability ([1]; first compound 0.06325 µM) | relative viability ([1]; first compound 0.2 µM) | relative viability ([1]; first compound 0.6325 µM) | relative viability ([1]; first compound 2 µM) | relative viability ([2]; first compound 0.02 µM) | relative viability ([2]; first compound 0.06325 µM) | relative viability ([2]; first compound 0.2 µM) | relative viability ([2]; first compound 0.6325 µM) | relative viability ([2]; first compound 2 µM) | relative viability ([3]; first compound 0.0025 µM) | relative viability ([3]; first compound 0.007906 µM) | relative viability ([3]; first compound 0.025 µM) | relative viability ([3]; first compound 0.07906 µM) | relative viability ([3]; first compound 0.25 µM) | relative viability ([4]; first compound 0.0025 µM) | relative viability ([4]; first compound 0.007906 µM) | relative viability ([4]; first compound 0.025 µM) | relative viability ([4]; first compound 0.07906 µM) | relative viability ([4]; first compound 0.25 µM)
1 | NCI-H1299 | 1.07 | 1.03 | 1.06 | 1.06 | 1.05 | 1.05 | 0.957 | 0.965 | 1.06 | 0.988 | 1.01 | 0.994 | 0.901 | 0.87 | 0.555 |  |  |  |  | 
2 | NCI-H1395 | 0.977 | 1.11 |  | 1.15 | 0.945 |  |  |  |  |  | 1.05 | 0.869 | 0.834 | 0.907 | 0.406 | 0.797 | 0.73 | 0.721 | 0.718 | 0.548
3 | NCI-H1563 | 1.24 | 1.17 | 1.11 | 1.17 | 1.26 | 1.05 | 0.827 | 0.753 | 0.838 | 0.852 | 0.973 | 0.937 | 0.808 | 0.84 | 0.61 |  |  |  |  | 
4 | NCI-H1623 |  |  |  |  |  |  |  |  |  |  |  |  |  |  |  | 0.355 | 0.364 | 0.299 | 0.256 | 0.314
5 | NCI-H1648 |  |  |  |  |  |  |  |  |  |  |  |  |  |  |  |  | 0.611 | 0.515 | 0.4 | 0.352
6 | NCI-H1650 |  |  |  |  |  | 0.189 | 0.19 | 0.2 | 0.19 | 0.222 | 0.899 | 0.714 | 0.567 | 0.568 | 0.151 | 0.422 | 0.434 | 0.397 | 0.374 | 0.23
7 | NCI-H1703 | 0.489 | 0.848 | 0.581 | 0.94 | 1.02 | 0.407 | 0.401 | 0.258 | 0.41 | 0.356 |  | 1.09 | 0.887 | 0.96 | 0.859 |  |  |  |  | 
